Values of other authors as cited in patent US20240382549A1, “USE OF MULBERRY EXTRACT FOR IMPROVING SLEEP QUALITY AND/OR SUBSEQUENT BEHAVIOURAL OUTCOMES” (SOCIETE DES PRODUITS NESTLE S.A., priority 2021, published 2024).

Conditions: earlier study; 12.5 mg DNJ in capsule, co-ingestion with maltodextrin

OC[C@H]1NC[C@H](O)[C@@H](O)[C@@H]1O [DNJ, 1-deoxynojirimycin]
reduction of PPGR: 14%
